Active and inactive are the calls of the source. No cut-off for these calls is given here.
Columns and labels:
MIA PaCa-2 [1] = assay: Antitumor activity against human MIA PaCa-2 cells xenografted in BALB/c nude mouse assessed as reduction in percentage of Ki67-positive cells at 10 to 30 mg/kg, ip administered for 16 days by immunohistochemical staining analysis; type: functional, organism-based; details: dose 10-30 mg/kg, time 16.0 day
NCI-H358 [2] = assay: Induction of apoptosis in human NCI-H358 cells assessed as necrotic cells at 30 nM incubated for 48 hrs by Annexin V-FITC staining based flow cytometry analysis (reference value: 1.62 %); type: functional
[3] = Cmax in ICR mouse at 2 mg/kg, iv measured after 24 hrs by LC-MS/MS analysis; type: ADME, organism-based; details: in vivo
NCI-H358 [4] = assay: Induction of apoptosis in human NCI-H358 cells assessed as viable cells at 100 nM incubated for 48 hrs by Annexin V-FITC staining based flow cytometry analysis (reference value: 91.6 %); type: functional; details: read-out: Activity
[5] = AUC (0 to t) in ICR mouse at 30 mg/kg, ip measured after 24 hrs by LC-MS/MS analysis; type: ADME, organism-based; details: in vivo
MIA PaCa-2 [6] = assay: Antitumor activity against human MIA PaCa-2 cells xenografted in BALB/c nude mouse assessed as increase in percentage of cleaved-caspase 3-positive cells at 10 to 30 mg/kg, ip administered for 16 days by immunohistochemical staining analysis; type: functional, organism-based; details: dose 10-30 mg/kg, time 16.0 day
NCI-H358 [7] = assay: Induction of apoptosis in human NCI-H358 cells assessed as necrotic cells at 300 nM incubated for 48 hrs by Annexin V-FITC staining based flow cytometry analysis (reference value: 1.62 %); type: functional
SW837 = assay: Antiproliferative activity against human SW837 cells expressing KRAS G12C mutant assessed as relative cell viability at 30 nM incubated for 72 hrs in presence of crizotinib by CCK-8 assay; type: functional; details: read-out: Activity
Mus musculus = assay: In vivo PROTAC activity at VHL/KRAS G12C mutant in BALB/c nude mouse xenografted with human MIA PaCa-2 cells assessed as decrease in KRAS level at 10 to 30 mg/kg, ip administered for 16 days by Western blot analysis; type: functional, organism-based; details: dose 10-30 mg/kg, time 16.0 day
MIA PaCa-2 [8] = assay: Antiproliferative activity against human MIA PaCa-2 cells expressing KRAS G12C mutant assessed as reduction of cell growth by measuring fold decrease in IC50 incubated for 72 hrs in presence of AZD4573 by CCK-8 assay; type: functional
NCI-H358 [9] = assay: Antiproliferative activity against human NCI-H358 cells expressing KRAS G12C mutant assessed as relative cell viability at 30 nM incubated for 72 hrs in presence of crizotinib by CCK-8 assay; type: functional; details: read-out: Activity
NCI-H358 [10] = assay: Induction of apoptosis in human NCI-H358 cells assessed as early apoptotic cells at 30 nM incubated for 48 hrs by Annexin V-FITC staining based flow cytometry analysis (reference value: 1.60 %); type: functional
NCI-H358 [11] = assay: Synergistic antiproliferative activity against human NCI-H358 cells expressing KRAS G12C mutant assessed as combination index incubated for 72 hrs in presence of SHP099 by CCK-8 assay; type: functional
NCI-H358 [12] = assay: Synergistic antiproliferative activity against human NCI-H358 cells expressing KRAS G12C mutant assessed as combination index at 30 nM incubated for 72 hrs in presence of […] by CCK-8 assay; type: functional
NCI-H358 [13] = assay: Induction of apoptosis in human NCI-H358 cells assessed as late apoptotic cells at 300 nM incubated for 48 hrs by Annexin V-FITC staining based flow cytometry analysis (reference value: 5.20 %); type: functional
[14] = tested on: von Hippel-Lindau disease tumor suppressor/GTPase KRas (Homo sapiens), P01116+P40337 [G12C]; assay: PROTAC activity at VHL/KRAS G12C mutant in human NCI-H358 cells assessed as induction of protein degradation at 100 nM incubated for 48 hrs followed by compound washout and measured after 48 hrs by Western blotting analysis; type: cell-based
Calu-1 = assay: Antiproliferative activity against human Calu-1 cells expressing KRAS G12C mutant assessed as relative cell viability at 30 nM incubated for 72 hrs in presence of selumetinib by CCK-8 assay; type: functional; details: read-out: Activity
MIA PaCa-2 [15] = assay: Inhibition of colony formation in human MIA PaCa-2 cells expressing KRAS G12C mutant assessed as reduction in cell number at 30 nM incubated for 14 days in presence of SHP099 by crystal violet staining based analysis; type: functional; details: time 14.0 day
MIA PaCa-2 [16] = assay: Induction of apoptosis in human MIA PaCa-2 cells assessed as necrotic cells at 30 nM incubated for 48 hrs by Annexin V-FITC staining based flow cytometry analysis (reference value: 1.25 %); type: functional
[17] = tested on: von Hippel-Lindau disease tumor suppressor/GTPase KRas (Homo sapiens), P01116+P40337 [G12C]; assay: PROTAC activity at VHL/KRAS G12C mutant in human MIA PaCa-2 cells assessed as inhibition of ERK phosphorylation at 100 nM incubated for 1 to 8 days by Western blotting analysis; type: cell-based; details: time 1-8 day
MIA PaCa-2 [18] = assay: Inhibition of colony formation in human MIA PaCa-2 cells expressing KRAS G12C mutant assessed as reduction in cell number at 30 nM incubated for 14 days in presence of linsitinib by crystal violet staining based analysis; type: functional; details: time 14.0 day
[19] = tested on: von Hippel-Lindau disease tumor suppressor/GTPase KRas (Homo sapiens), P01116+P40337 [G12C]; assay: PROTAC activity at VHL/KRAS G12C mutant in human NCI-H358 cells assessed as inhibition of AKT phosphorylation at 100 nM incubated for 1 to 8 days by Western blotting analysis; type: cell-based; details: time 1-8 day

Structure (SMILES): C=CC(=O)N1CCN(c2nc(=O)n(-c3c(C)ccnc3C(C)C)c3nc(-c4c(F)cccc4OCC4CCN(CCCC(=O)N[C@H](C(=O)N5C[C@H](O)C[C@H]5C(=O)NCc5ccc(-c6scnc6C)cc5)C(C)(C)C)CC4)c(F)cc23)[C@@H](C)C1
- Activity (MIA PaCa-2 [1]): Active
- Activity (NCI-H358 [2]): 1.01%
- Cmax [3]: 1170 ng/mL
- viability at 0.1 µM (NCI-H358 [4]): 85.9%
- AUC(0-t) at 24 h [5]: 21000 ng·h/mL
- Activity (MIA PaCa-2 [6]): Active
- Activity (NCI-H358 [7]): 1.7%
- viability at 0.03 µM (SW837): 0.36%
- Activity (Mus musculus): Active
- fold change (FC) (MIA PaCa-2 [8]): ~9
- viability at 0.03 µM (NCI-H358 [9]): 0.43%
- Activity (NCI-H358 [10]): 3.48%
- CI (NCI-H358 [11]): <1
- CI (NCI-H358 [12]): <1
- Activity (NCI-H358 [13]): 14.6%
- Activity [14]: inactive
- viability at 0.03 µM (Calu-1): 0.13%
- inhibition (MIA PaCa-2 [15]): Active
- Activity (MIA PaCa-2 [16]): 1.37%
- Activity [17]: Active
- inhibition (MIA PaCa-2 [18]): Active
- Activity [19]: Active

Reference: ChEMBL document CHEMBL5634141 (Eur J Med Chem, 2023)
